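Where inhibition never reached the appropriate level, the endpoint shown equals the highest concentration tested. Otherwise, values were interpolated linearly from a five-concentration, 48-hour dose response in 96-well plates. TGI is the concentration that stops growth completely.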

What all share (assay): inhibition of tumour cell growth, NCI panel, 48 h
The subject of assay [1] is MOLT-4 leukemia.
The test system of assay [2] is A549 NSCLC.
The subject of assay [3] is NCI-H522 lung.
Assay [4] relates to UO-31 renal.
Assay [5] concerns ACHN renal.
For assay [6], the system named is EKVX NSCLC.
Assay [7] relates to NCI/ADR-RES ovarian.
In assay [8] the test system is MALME-3M melanoma.
The test system of assay [9] is HOP-62 NSCLC.
Assay [10] has as its system OVCAR-5 ovarian.
The subject of assay [11] is T-47D breast.
The subject of assay [12] is SN12C renal.
The subject of assay [13] is UACC-257 melanoma.
The test system of assay [14] is BT-549 breast.
Assay [15] has as its system HL-60(TB) leukemia.
Assay [16] has as its system RXF 393 renal.
Assay [17] has as its system M14 melanoma.
Assay [18] has as its system SF-539 CNS.
In assay [19] the test system is A498 renal.
Assay [20] relates to CCRF-CEM leukemia.

As to `O=C(n1[nH]c(=O)n(-c2ccc([N+](=O)[O-])cc2)c1=O)C(Cl)(Cl)Cl`, the TGI in assay [1], in assay [2], in assay [3], in [4], in assay [5] and in assay [6] was greater than 75 µM in each case. The TGI in assay [7], in assay [8], in [9], in assay [10], in assay [11] and in assay [12] was greater than 75 µM throughout. Further, the TGI in assay [13], in assay [14], in [15], in assay [16] and in assay [17] was greater than 75 µM throughout.

On to `O=C(/C=C/c1c(O)c2ccccc2[nH]c1=O)CC(=O)C(=O)Nc1cccc(O)c1`, for which the TGI in [18], in assay [1], in [2], in assay [3], in assay [4] and in [5] was greater than 100 µM in each case. The TGI in [6], in assay [19], in assay [7], in [8], in assay [20] and in assay [10] was greater than 100 µM in each case. In addition, the TGI in [11], in assay [12], in assay [13], in [14], in assay [15] and in assay [17] was greater than 100 µM each time.

`CCC1=NC(N/N=C/c2ccccc2O)=N/C1=C\c1ccccc1O`: the TGI in [1] is greater than 61.5 µM; in assay [2], greater than 100 µM; in [3], 21 µM; in assay [4], 20.4 µM; in [5], 29.5 µM; in assay [6] it was greater than 100 µM. Further, the TGI was 85.4 µM in assay [19]; 24 µM in [7]; 85.4 µM in [8]; 39.2 µM in [9]; greater than 100 µM in assay [20]; greater than 100 µM in assay [10]. Besides, the TGI in assay [11] is greater than 76.5 µM; in assay [12] it was greater than 83 µM; in assay [13], greater than 100 µM; in assay [14] it was greater than 53.7 µM; in assay [15] it was 10.6 µM; in assay [16] it was greater than 73.4 µM. Moreover, in assay [17], the TGI was found to be 51.9 µM.

Regarding `C#CCOC(=O)C(N)CS` (stereo not drawn), the TGI in assay [1], in assay [2], in [3], in assay [4], in [5] and in assay [6] was greater than 100 µM throughout. Also, the TGI in assay [19], in assay [7], in assay [8], in assay [9], in [20] and in assay [10] was greater than 100 µM each time. Besides, the TGI in assay [11], in [12], in assay [13], in [14], in [15] and in assay [16] was greater than 100 µM in each case. In [17], this compound displayed a TGI greater than 100 µM.

`CC(C(O)c1ccccc1)N(C)/N=N/c1nc2c([nH]1)c(=O)n(C)c(=O)n2C` (stereo not drawn): the TGI in assay [1], in assay [2], in [4], in [5], in assay [6] and in [7] was greater than 100 µM each time. Besides, the TGI in assay [8], in assay [9], in assay [20], in assay [10], in assay [11] and in [12] was greater than 100 µM each time. The TGI in assay [13], in assay [14], in [15], in assay [16] and in assay [17] was greater than 100 µM in each case.

For `O=S(=O)([N-]c1nc2ccccc2nc1-[n+]1ccccc1)c1ccccc1`, the TGI is greater than 100 µM in [18]; 95.4 µM in assay [1]; greater than 100 µM in [2]; greater than 100 µM in assay [3]; greater than 100 µM in [4]; greater than 100 µM in assay [5]. Further, the TGI is greater than 100 µM in assay [6]; greater than 100 µM in assay [7]; greater than 100 µM in [8]; greater than 100 µM in [9]; 30.7 µM in [20]; greater than 100 µM in [10]. Besides, the TGI in assay [11] is greater than 100 µM; in assay [12], greater than 100 µM; in assay [13], greater than 100 µM; in assay [14] it was greater than 100 µM; in [15] it was 72.6 µM; in [16], greater than 100 µM. The TGI in assay [17] was greater than 100 µM.

Take `Cc1nn(-c2ccccc2)c2nc3c(c(C)nn3-c3ccccc3)c(-c3ccccc3Br)c12`: the TGI in [18], in assay [1], in assay [2], in assay [3], in [4] and in assay [5] was greater than 100 µM in each case. Also, the TGI in [6], in [19], in assay [7], in assay [8], in assay [9] and in [20] was greater than 100 µM in each case. Further, the TGI in [10], in assay [11], in assay [12], in [13], in assay [14] and in assay [16] was greater than 100 µM throughout. In addition, in assay [17], the TGI was greater than 100 µM.

(Values after PubChem BioAssay (NCI).)
